Experimental data reported in ChEMBL document CHEMBL1201862, “PubChem BioAssay data set” (2004).
The source made the active and inactive calls.

How the values were obtained:
[1] = CEM21 lymphoblast cell cytotoxicity, dose response, cytotoxicity control for viral fusion inhibitor project, CellTiter-Glo luminescence, cherry-picked (AID 652042); assay type: functional, cell-based;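 further: potency for signal decrease meaning cytotoxicity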
HEK293 [2] = assay: HEK cell cytotoxicity by LDH release, dose response, cytotoxicity control for IDE activator project, fluorescence, HEK cells (AID 588440); assay type: functional, cell-based; settings: Homo sapiens;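 further: cytotoxicity by LDH release measuring loss of membrane integrity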
HEK293 [3] = assay: optical interference in Abeta FP readout, dose response, artefact control for IDE activator project, biochemical, fluorescence polarization (AID 588442); assay type: functional, cell-based; settings: Homo sapiens
Insulin-degrading enzyme [4] = target: T1, Insulin-degrading enzyme (Homo sapiens, UniProt P14735); assay: activators of recombinant IDE enzyme, dose response, counter-screen for IDE activator project, biochemical, fluorescence polarization (AID 588681)
T1 sequence (P14735 whole entry): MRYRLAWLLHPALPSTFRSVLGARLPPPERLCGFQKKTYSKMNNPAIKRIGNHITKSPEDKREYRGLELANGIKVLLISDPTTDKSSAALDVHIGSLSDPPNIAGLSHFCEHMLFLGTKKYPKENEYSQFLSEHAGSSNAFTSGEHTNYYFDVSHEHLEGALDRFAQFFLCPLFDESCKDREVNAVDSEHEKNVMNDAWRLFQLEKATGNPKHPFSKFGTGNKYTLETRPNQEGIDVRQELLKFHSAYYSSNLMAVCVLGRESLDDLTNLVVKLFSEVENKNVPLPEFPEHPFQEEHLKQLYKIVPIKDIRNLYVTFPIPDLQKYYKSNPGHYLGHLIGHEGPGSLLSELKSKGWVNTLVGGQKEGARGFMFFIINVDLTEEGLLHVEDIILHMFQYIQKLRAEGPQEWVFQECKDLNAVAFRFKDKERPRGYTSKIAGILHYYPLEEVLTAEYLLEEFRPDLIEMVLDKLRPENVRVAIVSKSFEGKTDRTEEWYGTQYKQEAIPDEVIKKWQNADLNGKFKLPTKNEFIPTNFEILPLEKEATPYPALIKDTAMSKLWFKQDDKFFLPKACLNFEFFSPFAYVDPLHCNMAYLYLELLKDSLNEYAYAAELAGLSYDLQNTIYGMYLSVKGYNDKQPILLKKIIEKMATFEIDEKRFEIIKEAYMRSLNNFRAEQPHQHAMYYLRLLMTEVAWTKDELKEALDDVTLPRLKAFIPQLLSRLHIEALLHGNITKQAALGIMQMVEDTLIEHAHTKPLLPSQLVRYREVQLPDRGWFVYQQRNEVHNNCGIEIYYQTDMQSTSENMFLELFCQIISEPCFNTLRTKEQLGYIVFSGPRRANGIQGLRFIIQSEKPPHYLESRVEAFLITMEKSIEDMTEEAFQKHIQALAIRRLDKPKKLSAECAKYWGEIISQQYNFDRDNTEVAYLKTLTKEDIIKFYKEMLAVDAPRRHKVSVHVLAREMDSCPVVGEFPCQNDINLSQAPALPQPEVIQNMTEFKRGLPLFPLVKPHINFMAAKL

Insulin-degrading enzyme [5] = target: T1, Insulin-degrading enzyme; assay: activators of endogenous IDE in HEK cells, dose response, cell-based, fluorescence polarization (AID 588439); assay type: functional
[6] = target: Aryl hydrocarbon receptor (Homo sapiens, UniProt P35869); settings: Potency;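 further: confirmatory quantitative high-throughput screen measuring activation of the AhR signaling pathway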
Paired box protein Pax-8 = Paired box protein Pax-8 (Homo sapiens, UniProt Q06710); assay: inhibitors of PAX8-driven TPO luciferase reporter, dose response, RMG-I cells, cherry-pick (AID 687027); assay type: functional, cell-based;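 further: luciferase reporter driven by Pax8 target thyroperoxidase promoter measured by SteadyGlo luminescence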
[7] = IGROV1 ovarian cancer cell cytotoxicity, dose response, PAX8 inhibitor project, plate reader, dry powder samples (AID 743043); assay type: functional, cell-based; settings: IGROV-1
[8] = HepG2 cell cytotoxicity, dose response, cytotoxicity control, cherry-picked samples (AID 1159577); assay type: functional, cell-based
[9] = NIH:OVCAR-3 ovarian cancer cell cytotoxicity, dose response, PAX8 inhibitor project, plate reader, dry powder samples (AID 743044); assay type: functional, cell-based
[10] = P. falciparum Dd2 growth inhibitors, dose response, SYBR Green, cherry-picked samples (AID 1159567); assay type: functional, cell-based
P388 = assay: cells; assay type: functional; settings: Mus musculus
SN12K1 = assay: cells; assay type: functional; settings: Homo sapiens
P388/ADR = assay: cells; assay type: functional; settings: Mus musculus
[11] = off-target signal loss in HeLa-CEM21 co-culture – HeLa F-luc CTL cells, cherry-picked, counter-screen for HIV-1 Env fusion inhibitor project, dose response (AID 652040); assay type: functional, cell-based;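 further: potency for signal decrease marking cytotoxic or nonspecific inhibition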
[12] = inhibitors of HIV Env-driven cell fusion, dose response, cherry-pick (AID 652057); assay type: functional, cell-based
[13] = inhibitors of clade B AD8 Env fusion, dose response, cell-based, cherry-pick (AID 652062); assay type: functional;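 further: luciferase signal from cell-cell fusion driven by HIV-1 clade B AD8 Env; potency is for inhibitors of fusion seen as a drop in luminescence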
[14] = ZM109 Env clade C HIV-1 fusion inhibitors, dose response, HeLa effector, CEM target cells, luciferase, cherry-pick (AID 652058); assay type: functional, cell-based
[15] = target: T2, RNA-binding protein pos-1 (Caenorhabditis elegans, UniProt G5EF15); assay: inhibitors of POS-1/mex-3 RNA binding, dose response, biochemical, fluorescence polarization (AID 1964);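 further: purified POS-1 fused to maltose binding protein made in E. coli; potency of compounds blocking POS-1 binding to fluorescent RNA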
T2 sequence (G5EF15 whole entry): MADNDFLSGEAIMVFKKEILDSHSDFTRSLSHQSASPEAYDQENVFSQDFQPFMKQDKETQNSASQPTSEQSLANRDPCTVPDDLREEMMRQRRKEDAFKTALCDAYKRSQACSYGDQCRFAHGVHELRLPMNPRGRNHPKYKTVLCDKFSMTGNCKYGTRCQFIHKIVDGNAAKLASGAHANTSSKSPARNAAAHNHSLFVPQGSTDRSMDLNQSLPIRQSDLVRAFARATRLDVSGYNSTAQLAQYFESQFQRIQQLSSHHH

[16] = target: T3, Zinc finger protein mex-5 (Caenorhabditis elegans, UniProt Q9XUB2); assay: MEX-5/TCR-2 RNA interaction inhibitors, dose response, biochemical, C. elegans, fluorescence polarization (AID 1960)
T3 sequence (Q9XUB2 whole entry): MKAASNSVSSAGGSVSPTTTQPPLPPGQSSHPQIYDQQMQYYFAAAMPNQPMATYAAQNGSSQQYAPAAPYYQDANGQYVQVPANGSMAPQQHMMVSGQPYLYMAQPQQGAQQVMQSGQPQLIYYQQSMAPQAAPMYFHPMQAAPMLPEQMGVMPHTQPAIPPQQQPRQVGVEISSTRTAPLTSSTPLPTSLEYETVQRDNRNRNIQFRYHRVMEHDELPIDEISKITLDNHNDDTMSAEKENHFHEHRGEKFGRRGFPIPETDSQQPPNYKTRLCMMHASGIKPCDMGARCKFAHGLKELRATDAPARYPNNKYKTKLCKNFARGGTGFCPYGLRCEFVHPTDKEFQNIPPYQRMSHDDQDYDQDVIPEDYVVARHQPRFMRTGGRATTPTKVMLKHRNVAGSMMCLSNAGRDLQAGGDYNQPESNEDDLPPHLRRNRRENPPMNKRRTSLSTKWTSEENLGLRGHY

[17] = target: SWI/SNF-related matrix-associated actin-dependent regulator of chromatin subfamily A member 2 (Homo sapiens, UniProt P51531); assay: Luminescence-based cell-based high throughput dose response assay to identify activators of the function of SWI/SNF related, matrix associated, actin dependent regulator of chromatin, subfamily a, member 2 (SMARCA2, BRM).; assay type: functional
[18] = Counterscreen for activators of the function of SWI/SNF related, matrix associated, actin dependent regulator of chromatin, subfamily a, member 2 (SMARCA2, BRM): Luminescence-based cell-based high throughput dose response assay to identify non-selective compounds using the VP16 reporter assay.; assay type: functional
[19] = target: T4, Polyadenylate-binding protein 1 (Homo sapiens, UniProt P11940); assay: PABP1 MLLE–PAM2 interaction inhibitors, dose response, miRNA deadenylation inhibitor project, biochemical, fluorescence polarization, Cy5-PAM2 peptide, secondary (AID 602260); assay type: functional; settings: read-out: IC50_Mean
[20] = target: T4, Polyadenylate-binding protein 1; assay: PABP1 MLLE–PAM2 binding inhibitor potency, dose response, biochemical, fluorescence polarization, FITC-PAM2 peptide (AID 602259); assay type: functional; settings: read-out: IC50_Mean
[21] = target: Ras and Rab interactor 1/Tyrosine-protein kinase ABL1 (Homo sapiens, UniProt P00519+Q13671); assay type: functional;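 further: biochemical TR-FRET dose-response test measuring inhibition of binding between Rin1 and Abl proteins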
[22] = target: T5, Apoptotic protease-activating factor 1 (Homo sapiens, UniProt O14727); assay type: functional
T5 sequence (O14727 whole entry): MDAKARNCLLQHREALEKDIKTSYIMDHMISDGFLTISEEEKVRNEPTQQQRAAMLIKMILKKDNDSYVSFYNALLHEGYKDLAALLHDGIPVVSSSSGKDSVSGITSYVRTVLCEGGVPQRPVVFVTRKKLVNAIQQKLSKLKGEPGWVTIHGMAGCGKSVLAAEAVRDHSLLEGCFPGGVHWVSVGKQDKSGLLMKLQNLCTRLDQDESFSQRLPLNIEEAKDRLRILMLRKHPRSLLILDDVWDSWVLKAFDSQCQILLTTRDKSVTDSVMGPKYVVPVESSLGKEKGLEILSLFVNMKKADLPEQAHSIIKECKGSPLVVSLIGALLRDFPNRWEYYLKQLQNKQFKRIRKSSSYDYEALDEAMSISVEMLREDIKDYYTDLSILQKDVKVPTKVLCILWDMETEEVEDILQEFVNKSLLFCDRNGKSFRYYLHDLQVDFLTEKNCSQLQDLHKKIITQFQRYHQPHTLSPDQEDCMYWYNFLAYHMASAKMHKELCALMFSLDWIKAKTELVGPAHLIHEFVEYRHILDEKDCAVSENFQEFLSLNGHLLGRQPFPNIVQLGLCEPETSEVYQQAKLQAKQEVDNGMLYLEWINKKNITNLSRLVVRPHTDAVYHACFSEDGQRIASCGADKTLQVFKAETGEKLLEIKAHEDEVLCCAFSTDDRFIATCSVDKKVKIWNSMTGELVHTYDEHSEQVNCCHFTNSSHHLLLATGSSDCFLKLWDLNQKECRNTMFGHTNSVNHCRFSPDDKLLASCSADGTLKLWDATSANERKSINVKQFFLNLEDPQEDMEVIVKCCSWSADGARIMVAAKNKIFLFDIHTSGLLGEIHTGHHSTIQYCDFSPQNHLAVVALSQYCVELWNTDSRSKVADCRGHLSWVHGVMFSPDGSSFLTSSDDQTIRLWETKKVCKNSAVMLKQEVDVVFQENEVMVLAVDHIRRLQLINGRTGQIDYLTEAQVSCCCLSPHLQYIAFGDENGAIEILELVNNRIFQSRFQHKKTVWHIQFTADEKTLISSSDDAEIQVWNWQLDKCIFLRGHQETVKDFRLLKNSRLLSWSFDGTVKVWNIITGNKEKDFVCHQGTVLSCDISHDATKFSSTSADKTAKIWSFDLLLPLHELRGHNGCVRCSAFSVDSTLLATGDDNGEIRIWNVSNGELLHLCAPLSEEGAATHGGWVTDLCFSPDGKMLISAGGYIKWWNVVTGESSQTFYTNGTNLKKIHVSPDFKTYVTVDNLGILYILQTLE

INS1 = assay: beta cell apoptosis inhibitors, cytokine rescue, dose response, luminescence, retest (AID 449756); assay type: functional, cell-based; settings: Rattus norvegicus;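 further: cell death triggered by IL-1 beta plus TNF-alpha plus IFN-gamma mixture; protective hits raise ATP signal compared with cytokine alone wells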
Melanocortin receptor 4 = Melanocortin receptor 4 (Homo sapiens, UniProt P32245); assay type: functional, cell-based;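 further: Cell-based assay with luminescence read-out, confirmatory dose-response testing for agonist activity of biased ligands at MC4R; human U2OS cells with tagged receptor and beta-arrestin; potency of agonists that increase receptor coupling to beta-arrestin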
Melanocortin receptor 4, sequence (P32245 whole entry): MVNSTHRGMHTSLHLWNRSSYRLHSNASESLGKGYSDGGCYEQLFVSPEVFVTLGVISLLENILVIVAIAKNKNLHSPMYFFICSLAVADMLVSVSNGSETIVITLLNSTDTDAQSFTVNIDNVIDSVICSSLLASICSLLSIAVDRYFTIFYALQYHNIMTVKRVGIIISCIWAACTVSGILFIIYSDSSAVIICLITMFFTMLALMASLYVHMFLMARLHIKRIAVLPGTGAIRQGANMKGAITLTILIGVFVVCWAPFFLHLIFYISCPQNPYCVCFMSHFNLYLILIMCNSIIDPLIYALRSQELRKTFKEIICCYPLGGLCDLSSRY

T4 sequence (P11940 whole entry): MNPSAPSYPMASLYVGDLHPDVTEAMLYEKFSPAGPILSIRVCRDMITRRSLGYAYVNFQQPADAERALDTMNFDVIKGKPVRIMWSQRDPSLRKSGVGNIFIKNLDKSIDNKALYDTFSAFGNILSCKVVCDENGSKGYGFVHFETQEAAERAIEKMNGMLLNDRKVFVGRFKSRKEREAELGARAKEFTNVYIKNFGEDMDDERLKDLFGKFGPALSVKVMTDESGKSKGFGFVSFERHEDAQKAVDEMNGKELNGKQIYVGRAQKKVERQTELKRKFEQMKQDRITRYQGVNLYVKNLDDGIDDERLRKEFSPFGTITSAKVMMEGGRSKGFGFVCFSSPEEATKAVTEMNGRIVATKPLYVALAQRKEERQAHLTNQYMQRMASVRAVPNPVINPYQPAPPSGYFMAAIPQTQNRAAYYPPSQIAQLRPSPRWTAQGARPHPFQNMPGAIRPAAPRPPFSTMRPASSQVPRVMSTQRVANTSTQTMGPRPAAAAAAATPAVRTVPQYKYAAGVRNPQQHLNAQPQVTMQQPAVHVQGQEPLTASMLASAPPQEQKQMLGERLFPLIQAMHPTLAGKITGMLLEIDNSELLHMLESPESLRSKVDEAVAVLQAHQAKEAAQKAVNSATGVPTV
Aryl hydrocarbon receptor, sequence (P35869 whole entry): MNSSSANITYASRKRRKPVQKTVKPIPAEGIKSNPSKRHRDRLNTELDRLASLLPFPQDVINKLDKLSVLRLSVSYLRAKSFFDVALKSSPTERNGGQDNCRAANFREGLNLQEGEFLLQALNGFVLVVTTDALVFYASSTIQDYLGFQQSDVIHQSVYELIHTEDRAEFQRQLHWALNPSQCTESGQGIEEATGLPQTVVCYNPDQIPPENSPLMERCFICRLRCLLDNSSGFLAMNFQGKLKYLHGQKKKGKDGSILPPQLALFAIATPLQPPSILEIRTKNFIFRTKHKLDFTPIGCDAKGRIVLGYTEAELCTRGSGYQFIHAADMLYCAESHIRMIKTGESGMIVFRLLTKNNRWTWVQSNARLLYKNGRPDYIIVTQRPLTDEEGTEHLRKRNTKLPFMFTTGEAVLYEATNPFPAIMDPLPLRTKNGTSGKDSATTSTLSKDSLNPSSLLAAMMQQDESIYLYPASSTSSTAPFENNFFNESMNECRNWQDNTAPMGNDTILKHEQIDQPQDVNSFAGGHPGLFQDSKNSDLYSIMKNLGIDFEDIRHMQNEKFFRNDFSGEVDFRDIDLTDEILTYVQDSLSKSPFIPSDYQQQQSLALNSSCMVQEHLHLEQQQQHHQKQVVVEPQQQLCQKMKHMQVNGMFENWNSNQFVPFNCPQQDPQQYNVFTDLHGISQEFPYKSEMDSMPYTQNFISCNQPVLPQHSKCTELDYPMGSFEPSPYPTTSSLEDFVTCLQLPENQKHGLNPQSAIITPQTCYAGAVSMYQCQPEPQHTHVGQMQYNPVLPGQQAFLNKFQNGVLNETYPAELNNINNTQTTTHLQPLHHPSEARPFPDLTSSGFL
SWI/SNF-related matrix-associated actin-dependent regulator of chromatin subfamily A member 2, sequence (P51531 whole entry): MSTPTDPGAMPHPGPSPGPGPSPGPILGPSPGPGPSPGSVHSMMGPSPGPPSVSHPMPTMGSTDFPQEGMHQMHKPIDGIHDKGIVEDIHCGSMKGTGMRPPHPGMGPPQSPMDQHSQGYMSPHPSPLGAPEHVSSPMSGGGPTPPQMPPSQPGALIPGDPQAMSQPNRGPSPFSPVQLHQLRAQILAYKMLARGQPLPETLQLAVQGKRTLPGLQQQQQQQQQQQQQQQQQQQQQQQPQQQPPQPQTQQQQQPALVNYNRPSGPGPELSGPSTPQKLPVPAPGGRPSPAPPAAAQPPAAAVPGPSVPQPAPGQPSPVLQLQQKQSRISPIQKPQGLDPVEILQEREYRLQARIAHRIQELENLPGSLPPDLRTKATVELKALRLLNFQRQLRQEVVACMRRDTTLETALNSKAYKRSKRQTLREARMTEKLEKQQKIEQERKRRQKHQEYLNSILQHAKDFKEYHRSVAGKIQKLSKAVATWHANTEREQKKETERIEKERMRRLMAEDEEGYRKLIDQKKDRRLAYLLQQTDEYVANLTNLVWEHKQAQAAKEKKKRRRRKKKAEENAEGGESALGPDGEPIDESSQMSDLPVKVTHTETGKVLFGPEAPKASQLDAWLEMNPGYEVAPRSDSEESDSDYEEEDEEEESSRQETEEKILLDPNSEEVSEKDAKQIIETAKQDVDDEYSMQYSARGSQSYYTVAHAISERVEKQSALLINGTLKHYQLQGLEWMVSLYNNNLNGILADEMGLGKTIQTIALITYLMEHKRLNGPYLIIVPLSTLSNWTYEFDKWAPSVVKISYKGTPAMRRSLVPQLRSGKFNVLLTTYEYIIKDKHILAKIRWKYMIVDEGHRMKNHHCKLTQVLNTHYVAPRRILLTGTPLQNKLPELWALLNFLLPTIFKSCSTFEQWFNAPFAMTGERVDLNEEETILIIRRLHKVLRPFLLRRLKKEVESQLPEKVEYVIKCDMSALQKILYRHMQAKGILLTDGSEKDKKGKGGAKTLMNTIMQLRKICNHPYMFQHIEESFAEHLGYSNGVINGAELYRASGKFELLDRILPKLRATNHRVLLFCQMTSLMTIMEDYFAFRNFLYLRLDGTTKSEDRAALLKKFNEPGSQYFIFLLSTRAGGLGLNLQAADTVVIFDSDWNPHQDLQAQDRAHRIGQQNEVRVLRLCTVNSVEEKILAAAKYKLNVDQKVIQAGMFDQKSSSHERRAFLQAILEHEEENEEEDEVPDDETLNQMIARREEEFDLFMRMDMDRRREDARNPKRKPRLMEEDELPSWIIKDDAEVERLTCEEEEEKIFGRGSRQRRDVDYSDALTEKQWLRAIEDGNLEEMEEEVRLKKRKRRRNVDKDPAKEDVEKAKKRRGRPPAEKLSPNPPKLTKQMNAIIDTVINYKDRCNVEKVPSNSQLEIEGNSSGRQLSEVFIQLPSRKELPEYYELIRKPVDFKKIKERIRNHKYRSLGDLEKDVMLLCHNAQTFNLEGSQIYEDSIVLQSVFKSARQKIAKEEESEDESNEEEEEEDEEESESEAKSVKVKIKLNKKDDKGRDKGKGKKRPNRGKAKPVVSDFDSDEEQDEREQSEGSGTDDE
Paired box protein Pax-8, sequence (Q06710 whole entry): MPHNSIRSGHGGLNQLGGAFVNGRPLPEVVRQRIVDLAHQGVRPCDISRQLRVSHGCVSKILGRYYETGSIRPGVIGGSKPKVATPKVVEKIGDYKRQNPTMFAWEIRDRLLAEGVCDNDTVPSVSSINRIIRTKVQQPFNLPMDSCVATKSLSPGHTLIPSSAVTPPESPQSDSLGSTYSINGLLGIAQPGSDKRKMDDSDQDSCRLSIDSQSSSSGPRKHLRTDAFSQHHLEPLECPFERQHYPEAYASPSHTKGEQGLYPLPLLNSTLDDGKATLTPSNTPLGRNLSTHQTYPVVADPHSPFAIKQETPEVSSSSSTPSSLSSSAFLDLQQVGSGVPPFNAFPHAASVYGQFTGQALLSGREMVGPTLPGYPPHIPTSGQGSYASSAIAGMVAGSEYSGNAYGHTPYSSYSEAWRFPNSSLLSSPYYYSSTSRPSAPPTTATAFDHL

Q: Which AC50 [1] does the source give for `C[C@@H]1CN([C@@H](C)CO)C(=O)Cc2cc(NC(=O)NC3CCCCC3)ccc2O[C@@H]1CN(C)S(=O)(=O)c1ccc(Cl)cc1` here?
A: 61.1 µM (active)

Q: For `CC1=C(C(=O)OCc2ccccc2)C(c2ccc(Br)cc2)NC(=O)N1CCCCCC(=O)O` (centres undefined), which IC50 (HEK293 [2]) is on record?
A: > 89.2 µM (inactive)

Q: And the EC50 (HEK293 [3])?
A: > 55.9 µM (inactive)

Q: And the EC50 (Insulin-degrading enzyme [4])?
A: > 54.7 µM (inactive)

Q: And the EC50 (Insulin-degrading enzyme [5])?
A: > 54.7 µM (inactive)

Q: For `Cc1nn(C)c(Oc2ccccc2)c1/C=N/OCc1ccc(C(=O)OC(C)(C)C)cc1` [FENPYROXYMATE], which AC50 [6] is on record?
A: 44.7 µM (inconclusive)

Q: Which AC50 (Paired box protein Pax-8) does the source give for `CCCC#Cc1ccc([C@@H]2[C@H](CO)N3CCCCN(S(=O)(=O)Cc4ccccc4)C[C@@H]23)cc1` here?
A: 29.2 µM (active)

Q: What about the AC50 [7] of the same compound?
A: 42.6 µM (active)

Q: And the AC50 [8]?
A: 12.4 µM (active)

Q: And the AC50 [9]?
A: 61.3 µM (active)

Q: And the AC50 [10]?
A: 2.54 µM (active)

Q: Which AC50 [6] does the source give for `O=C1C=C2C(=CCOC2O)O1` (centres undefined) [PATULIN] here?
A: 12.6 µM (inconclusive)

Q: What about the GI50 (P388) of the same compound?
A: 0.135 µM (active)

Q: What about the GI50 (SN12K1) of the same compound?
A: 0.998 µM (active)

Q: And the GI50 (P388/ADR)?
A: 0.318 µM (active)

Q: What does the source list for `COc1cc(CNC(C)c2ccccc2)cc(Cl)c1OCC(=O)Nc1ccccc1` (centres undefined)?
A: AC50 [1]: 39 µM (active); AC50 [11]: 4.69 µM (active); AC50 [12]: 2.13 µM (active); AC50 [13]: 3.78 µM (active); AC50 [14]: 2.76 µM (active)

Q: Which EC50 [15] does the source give for `CN(C)CCCN1C(=O)c2cccc3c(Br)ccc(c23)C1=O` here?
A: 22.1 µM (active)

Q: What about the EC50 [16] of the same compound?
A: 16.7 µM (active)

Q: What about the EC50 [17] of the same compound?
A: > 10.1 µM (inactive)

Q: What about the EC50 [18] of the same compound?
A: > 91.2 µM (inactive)

Q: What about the IC50 [19] of the same compound?
A: > 66 µM (inactive)

Q: What about the IC50 [20] of the same compound?
A: 29.3 µM (inactive)

Q: For `COc1cccc(CSc2nnc(CSc3nc4nc(C)cc(C)n4n3)s2)c1`, which IC50 [21] is on record?
A: 7.8 µM (active)

Q: For `Cc1ccc(N/C=C(\C#N)S(=O)(=O)c2ccccc2)cc1`, which IC50 (HEK293 [2]) is on record?
A: > 89.3 µM (inactive)

Q: What about the EC50 (HEK293 [3]) of the same compound?
A: > 56 µM (inactive)

Q: And the EC50 (Insulin-degrading enzyme [4])?
A: > 54.7 µM (inactive)

Q: And the EC50 (Insulin-degrading enzyme [5])?
A: > 54.7 µM (inactive)

Q: Which results are given for `Oc1ccc(Br)cc1CNc1cccc2cccnc12`?
A: IC50 [22]: 34.6 µM (active); AC50 (INS1): 3.24 µM (active)

Q: Which EC50 (Melanocortin receptor 4) does the source give for `COc1ccc(-c2cc(NC(C)=O)c3ncc(-c4cccc(C(F)(F)F)c4)n3c2)c(OC)c1` here?
A: > 89.2 µM (inactive)
